Assay results: US10913781B2, “Pepducin design and use” (Tufts Medical Center, Inc., priority 2011, dated 2021)

Key:
PAR2-homodimers = target: T1, PAR2-homodimers (Homo sapiens, UniProt P55085, Q172R/R173Q/R36A); assay: Migration of HEK cells co-expressing PAR2-R36A and PAR2-RQ toward trypsin; type: cell-based; conditions: 30 nM trypsin; 18 h
T1 construct: expressed in transfected cells; host or cells: HEK
Experimental: (§1) (A) PAR2 antagonist pepducins P2pal-18S and P2pal-14GQ inhibit calcium flux induced by PAR2 (SLIGRL) (SEQ ID NO:4) but not PAR1 (TFLLRN) (SEQ ID NO:2) agonists. SW620 cells were stably transfected with PAR1 and pretreated for 1 min with various concentrations of P2pal-18S or P2pal-14GQ and then stimulated with 30 μM PAR agonist. […] Cells were stimulated with 1 μM TFLLRN (SEQ ID NO:2), 1 μM SLIGRL (SEQ ID NO:4) or 100 μM AYPGKF (SEQ ID NO:5) and [^3H]-InsP formation measured over 30 min. (C) SW620 cells were treated with the indicated concentrations of P2pal-18S or P2pal-14GQ in the upper well of an 8-μm pore Boyden chamber and allowed to migrate for 18 h towards 10 μM of the PAR2 specific agonist SLIGRL in the lower chamber. The migration to RPMI/0.1% FBS represents random migration. (D) Migration of HEK cells transiently transfected with PAR2 (wild-type, WT), or PAR2-R36A/PAR2-RQ toward chemotactic gradients of 30 nM trypsin in the absence or presence of the indicated concentration of P2pal-18S for 18 h in a transwell apparatus ([…]). Data (n=2-4) are mean±SEM. *, P<0.05 and **, P<0.005.
To provide functional evidence that one PAR2 receptor can interact with an adjacent PAR2 receptor, a signaling dead PAR2-RQ mutant was constructed by transposing residues at Q172 and R173 located in the critical ‘DRY’ TM3 motif (FIG. 1A, the second set of sequence labeled as “QR->RQ”). […]

PAR1 = target: T2, PAR1 (Homo sapiens, UniProt P25116); assay: [3H]-InsP formation in COS7 cells transfected with PAR1; type: cell-based; parameters: expressed in transfected cells; host or cells: COS7; conditions: 1 μM TFLLRN, 30 min
T2 sequence (P25116 22-425): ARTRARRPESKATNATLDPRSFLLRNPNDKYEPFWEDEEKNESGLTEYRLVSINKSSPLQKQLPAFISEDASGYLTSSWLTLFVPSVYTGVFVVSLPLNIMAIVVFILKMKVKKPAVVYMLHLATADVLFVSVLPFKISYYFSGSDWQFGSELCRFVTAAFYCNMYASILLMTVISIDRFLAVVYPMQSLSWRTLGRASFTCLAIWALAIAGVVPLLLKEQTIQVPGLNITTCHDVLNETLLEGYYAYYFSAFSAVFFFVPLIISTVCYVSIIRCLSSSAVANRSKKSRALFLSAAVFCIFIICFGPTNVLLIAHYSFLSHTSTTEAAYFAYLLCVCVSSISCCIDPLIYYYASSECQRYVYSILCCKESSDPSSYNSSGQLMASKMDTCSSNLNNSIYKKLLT
Experimental: as §1

PAR2 = PAR2 (Mus musculus, UniProt P55086); assay: SLIGRL-induced mouse paw edema; type: in vivo; parameters: from tissue; host or cells: living C57BL/6 mice, hindpaw; conditions: WT C57BL/6 mice; 10 mg/kg s.c.
Experimental: (A) λ-carrageenan/kaolin or (B) the PAR2 specific agonist SLIGRL was administered by intraplantar injection to the left hindpaw of C57BL/6 wild-type or PAR2^−/− mice that were treated with subcutaneous (s.c.) injection of 10 mg/kg of P2pal-18S or vehicle. Paw area was measured and reported as fold-increase relative to baseline paw area. (C) Histology of representative H&E-stained footpads 7 h after λ-carrageenan/kaolin injection and quantification of the infiltrating inflammatory cells at 40× magnification. […]
To evaluate the in vivo efficacy and specificity of P2pal-18S, the ability of the pepducins of the present invention was tested to protect against inflammatory hindlimb paw edema in wild-type (WT) and PAR2-deficient mouse strains (Damiano B P, et al. (1999) J Pharmacol Exp Ther 288: 671-78.) Acute inflammatory edema was induced by an intraplantar injection of λ-carrageenan and kaolin, irritants which cause a massive leukocytosis and hyperemic response, which leads to localized swelling. PAR2-dependent activity of an embodiment of the present invention, polypeptide P2pal-18S, was directly assessed by quantifying its inhibitory effects against the PAR2-specific agonist SLIGRL when injected into the hind footpad of WT C57BL/6 mice. […]

T1 sequence (P55085 26-397 R36A): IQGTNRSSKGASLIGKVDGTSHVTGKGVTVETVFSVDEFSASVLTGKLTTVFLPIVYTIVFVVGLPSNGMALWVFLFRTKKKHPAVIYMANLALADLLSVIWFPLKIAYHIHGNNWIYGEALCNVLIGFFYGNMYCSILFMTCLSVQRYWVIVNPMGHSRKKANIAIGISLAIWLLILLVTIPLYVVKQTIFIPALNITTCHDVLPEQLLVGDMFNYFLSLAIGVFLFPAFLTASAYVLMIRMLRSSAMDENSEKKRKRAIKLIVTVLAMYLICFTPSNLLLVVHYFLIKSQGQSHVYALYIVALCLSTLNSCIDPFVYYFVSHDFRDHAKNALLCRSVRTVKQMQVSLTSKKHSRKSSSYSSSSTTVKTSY
T1 sequence (P55085 37-397 Q172R/R173Q): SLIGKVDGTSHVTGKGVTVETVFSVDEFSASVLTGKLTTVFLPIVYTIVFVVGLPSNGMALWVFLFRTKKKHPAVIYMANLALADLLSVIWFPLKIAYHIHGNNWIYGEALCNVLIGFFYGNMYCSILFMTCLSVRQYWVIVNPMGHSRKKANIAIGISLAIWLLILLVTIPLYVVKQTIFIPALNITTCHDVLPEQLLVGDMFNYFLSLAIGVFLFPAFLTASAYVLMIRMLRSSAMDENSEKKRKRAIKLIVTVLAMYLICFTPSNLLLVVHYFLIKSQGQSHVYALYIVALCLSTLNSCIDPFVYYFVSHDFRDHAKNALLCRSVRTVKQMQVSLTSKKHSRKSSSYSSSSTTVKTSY
PAR2, sequence (P55086 26-399): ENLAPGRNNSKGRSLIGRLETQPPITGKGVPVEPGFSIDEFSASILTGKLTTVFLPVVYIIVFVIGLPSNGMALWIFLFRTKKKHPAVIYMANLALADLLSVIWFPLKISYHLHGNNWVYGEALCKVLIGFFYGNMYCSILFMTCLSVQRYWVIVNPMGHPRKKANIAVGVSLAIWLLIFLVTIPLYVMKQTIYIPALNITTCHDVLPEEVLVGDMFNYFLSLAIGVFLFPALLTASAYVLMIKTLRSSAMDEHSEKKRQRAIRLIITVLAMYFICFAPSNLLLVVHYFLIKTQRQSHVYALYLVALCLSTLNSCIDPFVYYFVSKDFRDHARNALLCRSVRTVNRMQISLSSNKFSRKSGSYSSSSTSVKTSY

Suppression of chemotactic migration (transactivation of PAR2-homodimers) (PAR2-homodimers): complete suppression
Inhibition of InsP signaling from PAR1 (PAR1): do not inhibit
Decrease in SLIGRL-induced edema (PAR2): 85%
Compound: CCCCCCCCCCCCCCCC(=O)N[C@@H](CCCNC(=N)N)C(=O)N[C@@H](CO)C(=O)N[C@@H](CO)C(=O)N[C@@H](C)C(=O)N[C@@H](CCSC)C(=O)N[C@@H](CC(=O)O)C(=O)N[C@@H](CCC(=O)O)C(=O)N[C@@H](CC(N)=O)C(=O)N[C@@H](CO)C(=O)N[C@@H](CCC(=O)O)C(=O)N[C@@H](CCCCN)C(=O)N[C@@H](CCCCN)C(=O)N[C@@H](CCCNC(=N)N)C(=O)N[C@@H](CCCCN)C(=O)N[C@@H](CO)C(=O)N[C@@H](C)C(=O)N[C@H](C(=O)N[C@@H](CCCCN)C(N)=O)[C@@H](C)CC [P2pal-18S]
